Earlier results in patent US20130202712A1, “Compositions And Methods For Treating Or Preventing Immuno-Inflammatory Disease” (VINDICO NANOBIO TECHNOLOGY, INC., priority 2010, published 2013).

Settings: free resveratrol

## Oc1ccc(C=Cc2cc(O)cc(O)c2)cc1 [resveratrol, 3,5,4′-trihydroxystilbene]
  Solubility in water: very low solubility in water
